What was measured:
[1] = Carfilzomib liposome entrapment by remote loading from precipitate (drug and lipid by HPLC after purification); type: physicochemical
Protocol: Ammonium sulfate solution was prepared by dissolving ammonium sulfate solid to a final concentration of 250 mM (500 mequivilents of anion/L) no pH adjustment was made to yield a final pH of 5.6. Sodium sulfate solution (250 mM) was prepared by adding 0.35 g sodium sulfate to 10 mL deionized water.
The liposomes were formed by extrusion. Lipids were dissolved in ethanol at a concentration of 500 mM HSPC (591 mg/mL total lipid) at 65° C. and the 9 volumes of the trapping agent solution heated to 65° C. was added to the ethanol/lipid solution also at 65° C. The mixture was vortexed and transferred to a 10 mL thermostatically controlled (65° C.) Lipex Extruder. The liposomes were formed by extruding 10 times through polycarbonate membranes having 0.1 um pores. After extrusion the liposomes were cooled on ice. The transmembrane electrochemical gradient was formed by purification of the liposomes by dialysis in dialysis tubing having a molecular weight cut off of 12,000-14,000. […] The conductivity of the liposome solution was measured and was indistinguishable from the dialysis medium ˜40 μS/cm.
The lipid concentration is determined by measuring the cholesterol by HPLC using an Agilent 1100 HPLC with and Agilent Zorbax 5 um, […], Eclipse XDB-C8 column and a mobile phase of A=0.1% TFA, B=0.1% TFA/MeOH with an isocratic elution of 99% B. The flow rate is 1.0 mL/min, column temperature is 50° C., 10 μL injection and detection by absorbance at 205 nm. […] The liposome size is measured by dynamic light scattering.
Carfilzomib (Selleck Chemicals) was dissolved in DMSO at a concentration of 10 mg/mL. […] The supernatants were purified on a Sephadex G25 column collected and analyzed by HPLC. […] The mobile phase consists of A=0.1% TFA, B=0.1% TFA/MeOH with a gradient elution starting at 50% B and increasing to 83% B in 13 min with 7 min equilibration back to 50% B. The flow rate is 1.0 mL/min, column temperature is 30 C, 10 μl injection and detection by absorbance at 205 nm. […] The lipid concentration is determined by analysis of the cholesterol by HPLC. […]

[2] = Drug precipitate loading followed by light scattering at 600 nm; type: physicochemical
Protocol: Liposomes containing 250 mM ammonium sulfate as trapping agent and 250 mM sodium sulfate as control liposomes which would not remote load drug. The liposomes were prepared and loaded using the procedure described in Example 1 except a disposable polystyrene cuvette was used as the reaction vessel. The scattering of light at 600 nm was measured with a UV/vis spectrophotometer during the loading process.

[3] = Reverse gradient-directed drug release from liposomes; type: physicochemical
Protocol: Liposomes were loaded with carfilzomib as described in Example 1 and were purified into deionized water. The sample was divided into two aliquots. To the first aliquot, concentrated Hepes pH 7.4 and NaCl was added so that the final concentration was 5 mM Hepes, 145 mM NaCl (HBS). To the second aliquot, concentrated ammonium sulfate was added so that the final concentration was 250 mM. No obvious physical changes were initially observed. The samples were then heated at 65° C. for 30 min. The samples were transferred to clean eppendorf tubes and centrifuged for 10,000 rpm for 5 min after which the supernatants and precipitates were separated and tested for carfilzomib content by HPLC assay. Released drug precipitated, liposome encapsulated drug remained in the supernatant. The % carfilzomib released was calculated by […]

[4] = Carfilzomib solubility as a function of DMSO content (optical density at 600 nm); type: physicochemical; settings: 0.2 mg/mL
Protocol: Carfilzomib was added from a stock 10 mg/mL solution in DMSO to 1 mL of a citric acid/DMSO mixture so that the composition of DMSO was 2%, 25%, 50%, 75% and 100%. The final drug concentration was 0.2 mg/mL. The solutions were prepared and measured for optical density at 600 nm. The optical density at 600 nm is a good measure of how turbid or how much scattering material (such as drug precipitates) are in a solution, generally, the more precipitates the higher the absorbance. From FIG. 8 is apparent that at DMSO concentrations below 50% vol/vol (25° C.) and 25% vol/vol (65° C.) the drug remains in a precipitated form. Only when the concentration of DMSO is increased does it become effectively solubilized at this concentration of 0.2 mg/mL.

[5] = elimination in the blood stream, unencapsulated drug; cited from earlier work
[6] = Aripiprazole loading into ammonium sulfate or sodium sulfate liposomes; type: physicochemical; settings: ratio of ammonium sulfate to sodium sulfate liposomes
Protocol: Liposomes (HSPC/Chol/PEG-DSPE 3/2/0.15 mol/mol/mol) containing 250 mM ammonium sulfate or 250 mM sodium sulfate were diluted in 1 mL of 50 mM citric acid, 10% (wt/wt) sucrose, pH 4.0 to a concentration of 6 mM phospholipid. 0.3 mg of aripiprazole was added from a stock solution of 15 mg/mL in DMSO, so that the final DMSO concentration was 2% (v/v). Fine precipitates were immediately observed after the drug was added to both liposome samples. The samples were heated at 65° C. for 30 min, the cooled on ice. The samples were filtered through a 0.2 um polyethersulfone syringe filter to remove any drug precipitates, followed by purification on a Sephadex G25 column equilibrated with HBS, pH 6.5 to remove any soluble extraliposome drug. The turbid fraction was collected and analyzed for lipid and drug as described above.

[7] = Aripiprazole precipitates from various solvents, absorbance at 600 nm with liposomes; type: physicochemical; settings: drug initially dissolved in DMSO, 1-4-methylpyrrolidone, diethylenemonoethylether or polyethyleneglycol (MW400); 7.5% solvent; 65 C 30 min
Protocol: Aripiprazole was dissolved in a range of solvents indicated below at 4 mg/mL. Liposomes composed of HSPC/Chol/PEG-DSPE (3/2/0.15 mol/mol/mol) that were prepared in 250 mM ammonium sulfate were used and diluted to 6 mM in Hepes buffered sucrose 10% (wt/wt) (HBSuc pH 6.5). 0.3 mg of drug was introduced by slow addition of each solvent while vortexing. The final solvent concentration was 7.5% for all samples. As controls, the drug was added from each solvent to the same volume of HBSuc pH 6.5 without the liposomes. The samples were heated at 65° C. for 30 min then cooled on ice.

loading capacity of remote loaded liposomes relative to sodium sulfate liposomes ([1]; ammonium sulfate vs sodium sulfate liposomes) | impact of delay between precipitate formation and loading on loading efficiency ([1]; delay up to 12 h) | greatest payload ([1]; triethylammonium sulfate gradient (500 mM), input 650 g drug/mol HSPC, 30 min, 10% DMSO) | time to clarification of the solution during loading ([2]; ammonium sulfate liposomes) | clarification of the precipitate during loading ([2]; sodium sulfate liposomes) | drug released with reverse gradient relative to control with no reverse gradient [3] | degradation of released drug (HPLC chromatogram vs starting material) ([3]; after loading and reverse gradient release) | DMSO concentration at which the drug remains in a precipitated form ([4]; 25 C) | DMSO concentration at which the drug remains in a precipitated form ([4]; 65 C) | % Efficiency NH4SO4/NaSO4 [6] | clarification of drug precipitate on incubation with liposomes (absorbance at 600 nm) [7] | Compound | t1/2 [5]
> 3 fold | does not have a significant impact | 440±12.6 g drug/mol HSPC | ≤ 15 min | do not show any clarification | 6.5 fold | no degradation | below 50 % vol/vol | < 25 % vol/vol |  |  | CC(C)C[C@H](NC(=O)[C@H](CCc1ccccc1)NC(=O)CN1CCOCC1)C(=O)N[C@@H](Cc1ccccc1)C(=O)N[C@@H](CC(C)C)C(=O)[C@@]1(C)CO1 [carfilzomib] | < 20 min
 |  |  |  |  |  |  |  |  | 49.3 | clarified the drug precipitate | O=C1CCc2ccc(OCCCCN3CCN(c4cccc(Cl)c4Cl)CC3)cc2N1 [aripiprazole] | 
